Source: PubChem BioAssay AID1963451 (Molecular Pharmacology Branch, DTP, NCI, 2024)

Test system: 521955-158-R6-J3-PDC complex spheroid growth, % test/control
Assay: Anticancer human tumor 521955-158-R6-J3-PDC patient-derived pancreatic carcinoma cell line growth inhibition [Asc]
Details: for IC50: curve of first compound; for viability, T/C: stronger effect = lower value
Summary of the method: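 Tumor cells were grown as complex spheroids with human endothelial cells (HUVEC) and human mesenchymal stem cells as stroma. Agents were tested alone and in combination, in half-log steps down from the clinical Cmax, or from 10 microM where Cmax was unknown.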

[1] = second compound 0.0316 µM, first compound 0.0316 µM
[2] = second compound 0.0316 µM, first compound 0.1 µM
[3] = second compound 0.1 µM, first compound 0.0316 µM
[4] = second compound 0.1 µM, first compound 0.1 µM
[5] = second compound 0.316 µM, first compound 0.0316 µM
[6] = second compound 0.316 µM, first compound 0.1 µM
[7] = second compound 1 µM, first compound 0.0316 µM
[8] = second compound 1 µM, first compound 0.1 µM
[9] = second compound 3.16 µM, first compound 0.0316 µM
[10] = second compound 3.16 µM, first compound 0.1 µM
[11] = second compound 10 µM, first compound 0.0316 µM
[12] = second compound 10 µM, first compound 0.1 µM
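Also: spheroids exposed to compounds for 7 days.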
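For viability, T/C in this document: 100% = DMSO vehicle control wells.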

Cn1ncnc1[C@H]1c2n[nH]c(=O)c3cc(F)cc(c23)N[C@@H]1c1ccc(F)cc1 + Cc1c(S(C)(=O)=O)c(-c2cc(F)cc(N3CCN(c4ccc(NS(=O)(=O)c5ccc(NC(CCN6CCC(C(=O)OCCCP(=O)(O)O)CC6)CSc6ccccc6)c(S(=O)(=O)C(F)(F)F)c5)cc4)CC3)c2)c(-c2ccc(Cl)cc2)n1C(C)C
IC50 (second compound 0.0316 µM): > 100 nM | IC50 (second compound 0.1 µM): > 100 nM | IC50 (second compound 0.316 µM): 4.81 nM | IC50 (second compound 1 µM): < 0.316 nM | IC50 (second compound 3.16 µM): < 0.316 nM | IC50 (second compound 10 µM): < 0.316 nM | viability, T/C (second compound 0.0316 µM, first compound 0.000316 µM): 84.8% | viability, T/C (second compound 0.0316 µM, first compound 0.001 µM): 92.7% | viability, T/C (second compound 0.0316 µM, first compound 0.00316 µM): 70.5% | viability, T/C (second compound 0.0316 µM, first compound 0.01 µM): 82% | viability, T/C [1]: 77% | viability, T/C [2]: 68.9% | viability, T/C (second compound 0.1 µM, first compound 0.000316 µM): 86.3% | viability, T/C (second compound 0.1 µM, first compound 0.001 µM): 75.1% | viability, T/C (second compound 0.1 µM, first compound 0.00316 µM): 75.3% | viability, T/C (second compound 0.1 µM, first compound 0.01 µM): 82.3% | viability, T/C [3]: 61% | viability, T/C [4]: 67.6% | viability, T/C (second compound 0.316 µM, first compound 0.000316 µM): 53.4% | viability, T/C (second compound 0.316 µM, first compound 0.001 µM): 54.2% | viability, T/C (second compound 0.316 µM, first compound 0.00316 µM): 52.5% | viability, T/C (second compound 0.316 µM, first compound 0.01 µM): 44.4% | viability, T/C [5]: 40.8% | viability, T/C [6]: 51.5% | viability, T/C (second compound 1 µM, first compound 0.000316 µM): 35.1% | viability, T/C (second compound 1 µM, first compound 0.001 µM): 32.7% | viability, T/C (second compound 1 µM, first compound 0.00316 µM): 41.4% | viability, T/C (second compound 1 µM, first compound 0.01 µM): 29.8% | viability, T/C [7]: 35% | viability, T/C [8]: 40.9% | viability, T/C (second compound 3.16 µM, first compound 0.000316 µM): 23% | viability, T/C (second compound 3.16 µM, first compound 0.001 µM): 24.3% | viability, T/C (second compound 3.16 µM, first compound 0.00316 µM): 21.1% | viability, T/C (second compound 3.16 µM, first compound 0.01 µM): 19.9% | viability, T/C [9]: 20.8% | viability, T/C [10]: 16.4% | viability, T/C (second compound 10 µM, first compound 0.000316 µM): 14.8% | viability, T/C (second compound 10 µM, first compound 0.001 µM): 17.9% | viability, T/C (second compound 10 µM, first compound 0.00316 µM): 26.6% | viability, T/C (second compound 10 µM, first compound 0.01 µM): 15.5% | viability, T/C [11]: 15% | viability, T/C [12]: 11%

C=C(F)C(=O)N1CCN(c2nc(OCC3CCCN3C)nc3c2CCN(c2cccc4cccc(Cl)c24)C3)CC1CC#N (centres undefined) + Cc1c(S(C)(=O)=O)c(-c2cc(F)cc(N3CCN(c4ccc(NS(=O)(=O)c5ccc(NC(CCN6CCC(C(=O)OCCCP(=O)(O)O)CC6)CSc6ccccc6)c(S(=O)(=O)C(F)(F)F)c5)cc4)CC3)c2)c(-c2ccc(Cl)cc2)n1C(C)C
IC50 (second compound 0.0316 µM): 3740 nM | IC50 (second compound 0.1 µM): 1000 nM | IC50 (second compound 0.316 µM): 111 nM | IC50 (second compound 1 µM): < 31.6 nM | IC50 (second compound 3.16 µM): < 31.6 nM | IC50 (second compound 10 µM): < 31.6 nM | viability, T/C [1]: 79.3% | viability, T/C [2]: 79.6% | viability, T/C (second compound 0.0316 µM, first compound 0.316 µM): 73.5% | viability, T/C (second compound 0.0316 µM, first compound 1 µM): 73.3% | viability, T/C (second compound 0.0316 µM, first compound 3.16 µM): 59.1% | viability, T/C (second compound 0.0316 µM, first compound 10 µM): 0.31% | viability, T/C [3]: 80.3% | viability, T/C [4]: 65.3% | viability, T/C (second compound 0.1 µM, first compound 0.316 µM): 58.5% | viability, T/C (second compound 0.1 µM, first compound 1 µM): 47.1% | viability, T/C (second compound 0.1 µM, first compound 3.16 µM): 39.6% | viability, T/C (second compound 0.1 µM, first compound 10 µM): 0.27% | viability, T/C [5]: 57.9% | viability, T/C [6]: 49.6% | viability, T/C (second compound 0.316 µM, first compound 0.316 µM): 37.9% | viability, T/C (second compound 0.316 µM, first compound 1 µM): 36.9% | viability, T/C (second compound 0.316 µM, first compound 3.16 µM): 23.3% | viability, T/C (second compound 0.316 µM, first compound 10 µM): 0.26% | viability, T/C [7]: 40.1% | viability, T/C [8]: 34.3% | viability, T/C (second compound 1 µM, first compound 0.316 µM): 28.4% | viability, T/C (second compound 1 µM, first compound 1 µM): 17.8% | viability, T/C (second compound 1 µM, first compound 3.16 µM): 8.04% | viability, T/C (second compound 1 µM, first compound 10 µM): 0.21% | viability, T/C [9]: 18.4% | viability, T/C [10]: 16.9% | viability, T/C (second compound 3.16 µM, first compound 0.316 µM): 15.8% | viability, T/C (second compound 3.16 µM, first compound 1 µM): 10% | viability, T/C (second compound 3.16 µM, first compound 3.16 µM): 0.82% | viability, T/C (second compound 3.16 µM, first compound 10 µM): 0.2% | viability, T/C [11]: 13.4% | viability, T/C [12]: 18.4% | viability, T/C (second compound 10 µM, first compound 0.316 µM): 21.8% | viability, T/C (second compound 10 µM, first compound 1 µM): 9.59% | viability, T/C (second compound 10 µM, first compound 3.16 µM): 0.77% | viability, T/C (second compound 10 µM, first compound 10 µM): 0.15%
